Data taken from patent publication US20230212164A1, “ANNULATED 2-AMINO-3-CYANO THIOPHENES AND DERIVATIVES FOR THE TREATMENT OF CANCER” (BOEHRINGER INGELHEIM INTERNATIONAL GMBH, priority 2020, published 2023).

What was measured:
[1] = molecular target: T1, protein-protein interaction between SOS1 and KRAS G12C (Homo sapiens, UniProt P01116, C118S/C51S/C80L/G12C); assay: KRAS::SOS1 AlphaScreen binding assay
T1 construct: His6 (N)

[2] = molecular target: KRASG12-dependent Ba/F3 cells (Homo sapiens, UniProt P01116, G12C, cells depend on it); assay: Ba/F3 cell model proliferation assay (AlamarBlue, 72 h); format: cell-based; settings: Ba/F3 cells transduced with KRASG12C, read-out: IC50 Ba/F3 KRASG12C
Procedure: Ba/F3 Cell Model Generation and Proliferation Assay
Plasmids containing KRASG12 mutants were obtained from GeneScript. To generate KRASG12-dependent Ba/F3 models, Ba/F3 cells were transduced with retroviruses containing vectors that harbor KRASG12 isoforms. Platinum-E cells (Cell Biolabs) were used for retrovirus packaging. Retrovirus was added to Ba/F3 cells. To ensure infection, 4 μg/mL polybrene was added and cells were spinfected. […] Cells with an infection efficiency of 10% to 20% were further cultivated and puromycin selection with 1 μg/mL was initiated. As a control, parental Ba/F3 cells were used to show selection status. Selection was considered successful when parental Ba/F3 cells cultures died. To evaluate the transforming potential of KRASG12 mutations, the growth medium was no longer supplemented with IL-3. Ba/F3 cells harboring the empty vector were used as a control. Approximately ten days before conducting the experiments, puromycin was left out.
All treatments were performed in technical duplicates. The assay is run using a fully automated robotic system. Treated cells were incubated for 72 h at 37° C. with 5% CO2.
AlamarBlue™ (ThermoFisher), a viability stain, was added and fluorescence measured in the PerkinElmer Envision HTS Multilabel Reader.

[3] = system: pERK (Thr202/Tyr204) in NCI-H358_Cas9_SOS2 (SOS2 knocked); assay: ERK phosphorylation assay 2 (AlphaLISA SureFire Ultra p-ERK1/2); settings: read-out: IC50 H358 pERK, ERK phosphorylation assay 2 (values marked with *)
Procedure: ERK Phosphorylation Assay
Low IC50 values in this assay setting are indicative of high potency of the compounds according to the invention.
GFP positive cells were collected and further expanded. These GFP-positive cell pools were single-cell diluted and SOS2 knock-out clones were identified via Western-blot and genomic DNA sequencing analysis.
Materials Used for the Assay:
AlphaLISA SureFire Ultra p-ERK1/2 (Thr202/Tyr204) Assay Kit (ALSU-PERK-A500)
Cells are seeded at 40,000 cells per well in /60 μL of RPMI with 10% FBS, non-essential amino acids, pyruvate and glutamax in Greiner TC 384 plates. The cells are incubated for 1 h at room temperature and then incubated overnight in an incubator at 37° C. and 5% CO2 in a humidified atmosphere. 60 nL compound solution (10 mM DMSO stock solution) is then added using a Labcyte Echo 550 device. After a 1 h incubation in the aforementioned incubator the medium is removed after centrifugation and the cells lysed by addition of 20 μL of 1.6-fold lysis buffer from the AlphaLISA SureFire Ultra pERK1/2 (Thr202/Tyr204) Assay Kit with added protease inhibitors, 100 nM trametinib+100 nM staurosporine. After 20 minutes of incubation at room temperature with shaking, 6 μL of each lysate sample is transferred to a 384-well Proxiplate and analyzed for pERK (Thr202/Tyr204) with the AlphaLISA SureFire Ultra pERK1/2 (Thr202/Tyr204) Assay Kit. 3 μL Acceptor Mix and 3 μL Donor Mix are added under subdued light and incubated for 2 h at room temperature in the dark, before the signal is measured on a PerkinElmer Envision HTS Multilabel Reader. The raw data were imported into and analyzed with the Boehringer Ingelheim proprietary software MegaLab (curve fitting based on the program PRISM, GraphPad Inc.).

Sequence of KRASG12-dependent Ba/F3 cells (P01116 whole entry G12C): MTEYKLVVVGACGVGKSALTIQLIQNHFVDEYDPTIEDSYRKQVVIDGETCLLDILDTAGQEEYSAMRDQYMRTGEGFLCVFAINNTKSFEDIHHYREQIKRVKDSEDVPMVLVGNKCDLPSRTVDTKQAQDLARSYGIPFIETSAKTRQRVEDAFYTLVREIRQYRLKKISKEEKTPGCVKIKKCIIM
T1 sequence (P01116 1-169 isoform P01116-2 G12C/C51S/C80L/C118S): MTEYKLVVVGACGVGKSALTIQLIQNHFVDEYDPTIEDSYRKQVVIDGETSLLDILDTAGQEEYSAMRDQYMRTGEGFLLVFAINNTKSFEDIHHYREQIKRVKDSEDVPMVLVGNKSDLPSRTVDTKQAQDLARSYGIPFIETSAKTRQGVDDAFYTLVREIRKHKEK

Row | SMILES | IC50 ([1]; Table 36) | GI50 [2] | IC50 [3] | IC50 ([1]; Table 37) | IC50 ([1]; Table 38) | IC50 ([1]; Table 39)
1 | C=CC(=O)N1CC(Oc2cc(O[C@@H](C)[C@@H]3CCCN3C)nc(-c3noc([C@@]4(C)CCCc5sc(N)c(C#N)c54)n3)c2)C1 [Ia-3] | 0.0012 µM | 0.0003 µM | 0.0005 µM |  |  | 
2 | C=CC(=O)N1CCN(c2cc(-c3noc([C@@]4(C)CCCc5sc(N)c(C#N)c54)n3)nc(O[C@@H](C)[C@@H]3CCCN3C)n2)C(C)C1C (stereo partly drawn) [Ia-53] | 0.0018 µM | 0.0043 µM | 0.0031 µM |  |  | 
3 | C=CC(=O)N1CCC(Oc2cc(-c3noc(C4(C)CCCc5sc(N)c(C#N)c54)n3)nc(N3CCC4(CCN(C)CC4)CC3)c2)CC1 (stereo not drawn) [Ia-78] | 0.155 µM | 0.702 µM | 0.459 µM |  |  | 
4 | C=CC(=O)N1CCN(c2cc(-c3noc([C@@]4(C)CCCc5sc(N)c(C#N)c54)n3)nc(OC[C@@H]3C[C@@H]4C[C@@H]4N3C)n2)CC1 [Ia-71] | 0.003 µM | 0.0237 µM | 0.0214 µM |  |  | 
5 | C=CC(=O)N1CCN(c2cc(O[C@@H](C)[C@@H]3CCCN3C)nc(-c3noc([C@@]4(C)CCCc5sc(N)c(C#N)c54)n3)c2)CC12CCCC2 [Ia-84] | 0.003 µM | 0.0099 µM | 0.011 µM |  |  | 
6 | COC/C=C/C(=O)N1CCN(c2cc(-c3noc([C@@]4(C)CCCc5sc(N)c(C#N)c54)n3)nc(O[C@@H](C)[C@@H]3CCCN3C)n2)CC12CC2 [Ia-160] |  | 0.116 µM | 0.0253 µM | 0.011 µM |  | 
7 | C=CC(=O)N1CCN(c2cc(-c3noc([C@@]4(C)CCCc5sc(N)c(C#N)c54)n3)nc(O[C@@H](C)[C@@H]3CCCN3C)n2)C[C@H]1C [Ia-63] | 0.0026 µM | 0.015 µM | 0.0109 µM |  |  | 
8 | C=CC(=O)N1CCN(c2cc(-c3noc([C@@]4(C)CCCc5sc(N)c(C#N)c54)n3)nc(O[C@@H](C)[C@@H]3CCCN3C)n2)C2CCCC21 (stereo partly drawn) [Ia-60] | 0.0017 µM | 0.0059 µM | 0.0028 µM |  |  | 
9 | C=CC(=O)N1[C@H](C)CN(c2cc(-c3noc([C@@]4(C)CCCc5sc(N)c(C#N)c54)n3)nc(O[C@@H](C)[C@@H]3CCCN3C)n2)C[C@H]1C [Ia-56] | 0.105 µM | 0.303 µM | 0.0621 µM |  |  | 
10 | C/C=C/C(=O)N1CCN(c2cc(-c3noc([C@@]4(C)CCCc5sc(N)c(C#N)c54)n3)nc(O[C@@H](C)[C@@H]3CCCN3C)n2)CC12CC2 [Ia-163] |  | 0.431 µM | 0.0813 µM | 0.022 µM |  | 
11 | COC/C=C\C(=O)N1CCN(c2cc(O[C@@H](C)[C@@H]3CCCN3C)nc(-c3noc([C@@]4(C)CCCc5sc(N)c(C#N)c54)n3)n2)CC12CC2 [Ia-161] |  | 0.162 µM | 0.0265 µM | 0.021 µM |  | 
12 | C=CC(=O)N1CCN(c2cc(O[C@@H](C)[C@@H]3CCCN3C)nc(-c3noc([C@@]4(C)CCCc5sc(N)c(C#N)c54)n3)c2)CC12CCC2 [Ia-83] | 0.002 µM | 0.0074 µM | 0.0102 µM |  |  | 
13 | CC#CC(=O)N1CCN(c2cc(-c3noc([C@@]4(C)CCCc5sc(N)c(C#N)c54)n3)nc(O[C@@H](C)[C@@H]3CCCN3C)n2)C2CCCC21 (stereo partly drawn) [Ia-167] |  | 0.189 µM | 0.0772 µM |  | 0.015 µM | 
14 | C=CC(=O)N1CCN(c2cc(-c3noc([C@@]4(C)CCCc5sc(N)c(C#N)c54)n3)nc(OC3C4CC5CN(C)C3C5C4)n2)CC1 (stereo partly drawn) [Ia-50] | 0.011 µM | 0.496 µM | 0.121 µM |  |  | 
15 | C=CC(=O)N1C2CCC1CN(c1cc(-c3noc([C@@]4(C)CCCc5sc(N)c(C#N)c54)n3)nc(O[C@@H](C)[C@@H]3CCCN3C)n1)C2 [Ia-59] | 0.003 µM | 0.0325 µM | 0.0055 µM |  |  | 
16 | CC#CC(=O)N1CCN(c2cc(-c3noc([C@@]4(C)CCCc5sc(N)c(C#N)c54)n3)nc(O[C@@H](C)[C@@H]3CCCN3C)n2)CC12CC2 [Ia-166] |  | 0.0134 µM | 0.0042 µM |  | 0.003 µM | 

Row | SMILES | IC50 ([1]; Table 36) | GI50 [2] | IC50 [3] | IC50 ([1]; Table 37) | IC50 ([1]; Table 38) | IC50 ([1]; Table 39)
17 | C=CC(=O)N1CC[C@H](C)N(c2cc(-c3noc([C@@]4(C)CCCc5sc(N)c(C#N)c54)n3)nc(O[C@@H](C)[C@@H]3CCCN3C)n2)CC1 [Ia-55] | 0.002 µM | 0.0242 µM | 0.0098 µM |  |  | 
18 | C=CC(=O)N1CC[C@H](Oc2cc(O[C@@H](C)[C@@H]3CCCN3C)nc(-c3noc([C@@]4(C)CCCc5sc(N)c(C#N)c54)n3)c2)C1 [Ia-82] | 0.002 µM | 0.0173 µM | 0.0077 µM |  |  | 
19 | C=CC(=O)N1CCN(c2cc(-c3noc([C@@]4(C)CCCc5sc(N)c(C#N)c54)n3)nc(OC[C@@H]3CC4(CC4)CN3C)n2)CC1 [Ia-72] | 0.007 µM | 0.0778 µM | 0.0509 µM |  |  | 
20 | C=CC(=O)N1CCN(c2cc(-c3noc([C@@]4(C)CCc5sc(N)c(C#N)c54)n3)nc(N[C@@H](C)[C@@H]3CCCN3C)n2)CC1 [Ia-132] | 0.515 µM | 1.31 µM | 1.35 µM |  |  | 
21 | C[C@H](Oc1nc(-c2noc([C@@]3(C)CCCc4sc(N)c(C#N)c43)n2)cc(N2CCN(C(=O)/C=C/CN3CCOCC3)CC2)n1)[C@@H]1CCCN1C [Ia-158] |  | 0.467 µM | 0.103 µM | 0.004 µM |  | 
22 | C=CC(=O)N1CCN(c2cc(O[C@@H](C)[C@@H]3CCCN3C)nc(-c3noc([C@@]4(C)CCCc5sc(N)c(C#N)c54)n3)c2)CC1 [Ia-26] | 0.0019 µM | 0.0033 µM | 0.0015 µM |  |  | 
23 | C=CC(=O)N1CC[C@@H](Oc2cc(O[C@@H](C)[C@@H]3CCCN3C)nc(-c3noc([C@@]4(C)CCCc5sc(N)c(C#N)c54)n3)c2)C1 [Ia-81] | 0.0016 µM | 0.0019 µM | 0.0017 µM |  |  | 
24 | COC/C=C/C(=O)N1CCC(Oc2cc(O[C@@H](C)[C@@H]3CCCN3C)nc(-c3noc([C@@]4(C)CCCc5sc(N)c(C#N)c54)n3)c2)CC1 [Ia-159] |  | 0.0162 µM | 0.0124 µM | 0.005 µM |  | 
25 | C=CC(=O)N1CCC(Oc2cc(O[C@@H](C)[C@@H]3CCCN3C)nc(-c3noc([C@@]4(C)CCCc5sc(N)c(C#N)c54)n3)c2)CC1 [Ia-4] | 0.0017 µM | 0.001 µM | 0.0011 µM |  |  | 
26 | C/C=C/C(=O)N1CCN(c2cc(-c3noc([C@@]4(C)CCCc5sc(N)c(C#N)c54)n3)nc(O[C@@H](C)[C@@H]3CCCN3C)n2)CC1 [Ia-155] |  | 0.271 µM | 0.0398 µM | 0.01 µM |  | 
27 | C=CC(=O)N1CCN(c2cc(-c3noc([C@@]4(C)CCCc5sc(N)c(C#N)c54)n3)nc(OC3CCC4CCN(C)C43)n2)CC1 (stereo partly drawn) [Ia-48] | 0.008 µM | 0.0976 µM | 0.0213 µM |  |  | 
28 | C=CC(=O)N1CCCN(c2cc(-c3noc([C@@]4(C)CCCc5sc(N)c(C#N)c54)n3)nc(O[C@@H](C)[C@@H]3CCCN3C)n2)[C@@H](C)C1 [Ia-58] | 0.319 µM | 3.48 µM | 0.3 µM |  |  | 
29 | C=CC(=O)N1CCN(c2cc(-c3noc([C@@]4(C)CCCc5sc(N)c(C#N)c54)n3)nc(O[C@@H](C)[C@@H]3CC[C@H](C)N3C)n2)CC1 [Ia-137] | 0.0018 µM | 0.0005 µM | 0.0007 µM |  |  | 
30 | C=CC(=O)N1C[C@H](Oc2cc(O[C@@H](C)[C@@H]3CCCN3C)nc(-c3noc([C@@]4(C)CCCc5sc(N)c(C#N)c54)n3)c2)[C@H]1C [Ia-85] | 0.0016 µM | 0.0007 µM | 0.0007 µM |  |  | 
31 | C[C@H](Oc1nc(-c2noc([C@@]3(C)CCCc4sc(N)c(C#N)c43)n2)cc(N2CCN(C/C=C/C(=O)N(C)C)CC2)n1)[C@@H]1CCCN1C [Ia-169] |  | 7.73 µM | 1.84 µM |  |  | 0.04 µM
32 | C=CC(=O)N1CCC(Oc2cc(-c3noc([C@@]4(C)CCCc5sc(N)c(C#N)c54)n3)nc(N3CCN(C)C[C@@H]3C)c2)CC1 [Ia-79] | 0.004 µM | 0.0077 µM | 0.0187 µM |  |  | 
